Measurements as given in ChEMBL document CHEMBL6109079, “Discovery of novel pyrimidinetrione derivatives as DprE1 inhibitors with potent antimycobacterial activities” (Eur J Med Chem, 2025).
pIC50, pKd: −log10 of the molar value. ≈ marks a conversion by molar mass, not a printed value. Calls of active or inactive are those of the source. The rule behind the calls is not given here.

Legend:
[1] = Inhibition of DprE1 (unknown origin) preincubated with FAD followed by compound addition and measured after 2 mins by fluorescence based microplate reader; set-up: species or system Bacteria
[2] = test system: Mycobacterium tuberculosis; assay: Antibacterial activity against Mycobacterium tuberculosis H37Ra assessed as inhibition of bacterial growth incubated for 1 weeks by absorbance based microplate reader; type: functional; conditions: 168 h
[3] = Selectivity index, ratio of CC50 for cytotoxicity against human THP-1 cells to MIC50 for antibacterial activity against Mycobacterium tuberculosis H37Ra; type: toxicity, cell-based; conditions: read-out: Selectivity Index
[4] = Cytotoxicity against human THP-1 cells assessed as reduction in cell viability incubated for 24 hrs by CCK-8 assay; type: toxicity, cell-based
[5] = Cytotoxicity against human THP-1 cells assessed as cell viability at 200 uM incubated for 24 hrs by CCK-8 assay relative to control; type: toxicity, cell-based; conditions: read-out: Activity
[6] = test system: Mycobacterium tuberculosis; assay: Antibacterial activity against Mycobacterium tuberculosis H37Ra assessed as inhibition of bacterial growth at 50 uM incubated for 3 weeks by absorbance based microplate reader relative to control; type: functional; conditions: 504 h
[7] = test system: Mycobacterium tuberculosis; assay: Antibacterial activity against Mycobacterium tuberculosis H37Rv assessed as inhibition of bacterial growth at 10 uM incubated for 3 weeks by absorbance based microplate reader relative to control; type: functional; conditions: 504 h
[8] = test system: Mycobacterium tuberculosis; assay: Antibacterial activity against Mycobacterium tuberculosis H37Ra assessed as inhibition of bacterial growth at 10 uM incubated for 3 weeks by absorbance based microplate reader relative to control; type: functional; conditions: 504 h
[9] = test system: Mycobacterium tuberculosis; assay: Antibacterial activity against Mycobacterium tuberculosis H37Ra infected in PMA-differentiated human THP-1 cells assessed as reduction in colony forming units measured after 3 weeks by absorbance based assay; type: functional, organism-based; conditions: dose 10-100 µM
[10] = test system: Mycobacterium tuberculosis; assay: Antibacterial activity against Mycobacterium tuberculosis H37Rv infected in PMA-differentiated human THP-1 cells assessed as reduction in colony forming units at 100 uM measured after 3 weeks by absorbance based assay; type: functional, organism-based
[11] = Binding affinity to recombinant DprE1 (unknown origin) assessed as dissociation constant incubated for 10 mins by MST analysis; set-up: species or system Bacteria
[12] = biological target: T1, Decaprenylphosphoryl-beta-D-ribose oxidase (Mycobacterium smegmatis (strain ATCC 700084 / mc(2)155), UniProt A0R607); assay: Binding affinity to full length N-terminal 6his-tagged Mycobacterium smegmatis ATCC 607 DprE1 extracted from Escherichia coli BL21 assessed as dissociation constant incubated for 10 mins; set-up: species or system Mycolicibacterium smegmatis
T1 sequence (A0R607 whole entry): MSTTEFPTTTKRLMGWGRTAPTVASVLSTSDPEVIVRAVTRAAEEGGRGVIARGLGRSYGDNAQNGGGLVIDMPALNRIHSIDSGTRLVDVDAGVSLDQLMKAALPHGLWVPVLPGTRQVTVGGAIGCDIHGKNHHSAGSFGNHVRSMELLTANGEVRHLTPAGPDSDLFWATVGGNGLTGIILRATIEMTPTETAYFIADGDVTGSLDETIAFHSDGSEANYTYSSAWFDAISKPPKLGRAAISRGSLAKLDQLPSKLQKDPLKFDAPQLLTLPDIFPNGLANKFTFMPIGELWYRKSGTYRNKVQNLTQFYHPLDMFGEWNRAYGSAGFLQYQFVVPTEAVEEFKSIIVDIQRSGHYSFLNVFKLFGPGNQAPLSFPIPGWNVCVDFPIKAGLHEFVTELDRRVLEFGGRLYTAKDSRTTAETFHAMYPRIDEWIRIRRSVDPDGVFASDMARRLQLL

O=C1NC(=O)N(C2CC2)C(=O)/C1=C/NNC(=O)c1ccnc2ccccc12
pIC50 [1]: 4.84

COCC(=O)NN/C=C1\C(=O)NC(=O)N(Cc2ccccc2)C1=O
pIC50 [1]: < 4.00

O=C1NC(=O)N(Cc2ccccc2)C(=O)/C1=C/NNC(=O)c1cccc2ccccc12
pIC50 [1]: 4.63

O=C1NC(=O)N(CCc2ccccc2)C(=O)/C1=C/NNC(=O)c1cccnc1
pIC50 [1]: 4.61

CC(C)N1C(=O)NC(=O)/C(=C\NNC(=O)c2ccncc2)C1=O
MIC50 [2]: 1.75 µM (≈ 0.555 µg/mL)
selectivity ratio [3]: > 114
CC50 at 24 h [4]: > 200 µM
viability at 24 h, 200 µM [5]: 100%
inhibition at 50 µM [6]: 100%
pIC50 [1]: 4.32
inhibition at 10 µM [7]: 100%
inhibition at 10 µM [8]: 100%

CCN1C(=O)NC(=O)/C(=C\NNC(=O)c2ccncc2)C1=O
MIC50 [2]: 1.36 µM (≈ 0.414 µg/mL)
selectivity ratio [3]: > 147
CC50 at 24 h [4]: > 200 µM
viability at 24 h, 200 µM [5]: 100%
inhibition at 50 µM [6]: 100%
pIC50 [1]: 4.28
inhibition at 10 µM [7]: 100%
inhibition at 10 µM [8]: 100%

CC(C)(C)C(=O)NN/C=C1\C(=O)NC(=O)N(Cc2ccccc2)C1=O
pIC50 [1]: < 4.00

O=C1NC(=O)N(Cc2ccccc2)C(=O)/C1=C/NNC(=O)c1ccncc1
MIC50 [2]: 3.15 µM (≈ 1.15 µg/mL)
selectivity ratio [3]: > 63.5
CC50 at 24 h [4]: > 200 µM
viability at 24 h, 200 µM [5]: 100%
inhibition at 50 µM [6]: 100%
pIC50 [1]: 4.99
inhibition at 10 µM [7]: 100%
inhibition at 10 µM [8]: 100%

O=C1NC(=O)N(Cc2ccccc2)C(=O)/C1=C/NNC(=O)c1ccnc2ccccc12
pIC50 [1]: 4.86

C#CCN1C(=O)NC(=O)/C(=C\NNC(=O)c2ccncc2)C1=O
Activity [9]: Dose-dependent-effect; Best Bactericidal Effect Observed
Activity [10]: Active
MIC50 [2]: 1.07 µM (≈ 0.336 µg/mL)
selectivity ratio [3]: > 187
pKd [11]: 7.17
CC50 at 24 h [4]: > 200 µM
viability at 24 h, 200 µM [5]: 100%
inhibition at 50 µM [6]: 100%
pIC50 [1]: 4.90
inhibition at 10 µM [7]: 100%
inhibition at 10 µM [8]: 100%

C=CCN1C(=O)C(=CNNC(=O)c2ccncc2)C(=O)N(CC=C)C1=O
MIC50 [2]: 2.89 µM (≈ 1.03 µg/mL)
selectivity ratio [3]: > 69.2
CC50 at 24 h [4]: > 200 µM
viability at 24 h, 200 µM [5]: 100%
inhibition at 50 µM [6]: 100%
pIC50 [1]: < 4.00
inhibition at 10 µM [7]: 100%
inhibition at 10 µM [8]: 100%

O=C1NC(=O)N(Cc2ccccc2)C(=O)/C1=C/NNC(=O)c1cccnc1
pIC50 [1]: 4.54

O=C1NC(=O)N(C2CC2)C(=O)/C1=C/NNC(=O)c1cccc2ncccc12
pIC50 [1]: 4.82

CC(=O)Nc1cccc(C(=O)NN/C=C2\C(=O)NC(=O)N(Cc3ccccc3)C2=O)c1
pIC50 [1]: 4.68

O=C1NC(=O)N(C2CC2)C(=O)/C1=C/NNC(=O)c1ccncc1
Activity [9]: Dose-dependent-effect
MIC50 [2]: 1.12 µM (≈ 0.353 µg/mL)
selectivity ratio [3]: > 179
pKd [11]: 5.65
CC50 at 24 h [4]: > 200 µM
viability at 24 h, 200 µM [5]: 100%
inhibition at 50 µM [6]: 100%
pIC50 [1]: 4.69
inhibition at 10 µM [7]: 100%
inhibition at 10 µM [8]: 100%

O=C(CCl)NN/C=C1\C(=O)NC(=O)N(Cc2ccccc2)C1=O
pIC50 [1]: < 4.00

O=C1NC(=O)C(=CNNC(=O)c2ccncc2)C(=O)N1
MIC50 [2]: 1.78 µM (≈ 0.491 µg/mL)
selectivity ratio [3]: > 112
CC50 at 24 h [4]: > 200 µM
viability at 24 h, 200 µM [5]: 100%
inhibition at 50 µM [6]: 100%
pIC50 [1]: < 4.00
inhibition at 10 µM [7]: 100%
inhibition at 10 µM [8]: 100%

CC(=O)NC[C@H]1CN(c2ccc(N3CCOCC3)c(F)c2)C(=O)O1 [LINEZOLID]
MIC50 [2]: 1.67 µM (≈ 0.563 µg/mL)
selectivity ratio [3]: > 120

O=C1NC(=O)N(C2CCCCC2)C(=O)/C1=C/NNC(=O)c1ccncc1
MIC50 [2]: 5.34 µM (≈ 1.91 µg/mL)
selectivity ratio [3]: > 37.5
CC50 at 24 h [4]: > 200 µM
viability at 24 h, 200 µM [5]: 100%
inhibition at 50 µM [6]: 100%
pIC50 [1]: 4.78
inhibition at 10 µM [7]: 100%
inhibition at 10 µM [8]: 100%

O=C1NC(=O)N(CCO)C(=O)/C1=C/NNC(=O)c1ccncc1
Activity [9]: Dose-dependent-effect
MIC50 [2]: 1.2 µM (≈ 0.384 µg/mL)
selectivity ratio [3]: > 166
pKd [11]: 6.87
CC50 at 24 h [4]: > 200 µM
viability at 24 h, 200 µM [5]: 100%
inhibition at 50 µM [6]: 100%
pIC50 [1]: 4.34
inhibition at 10 µM [7]: 100%
inhibition at 10 µM [8]: 100%

O=C1NC(=O)N(Cc2ccccc2)C(=O)/C1=C/NNC(=O)c1ccc2ccccc2c1
pIC50 [1]: 4.97

CC(=O)Nc1ccc(C(=O)NN/C=C2\C(=O)NC(=O)N(Cc3ccccc3)C2=O)cc1
pIC50 [1]: 4.56

O=C1NC(=O)N(Cc2ccccc2)C(=O)/C1=C/NNC(=O)c1cccc2ncccc12
pIC50 [1]: 4.90

CC[C@@H](C)N1C(=O)NC(=O)/C(=C\NNC(=O)c2ccccc2)C1=O
pIC50 [1]: 4.87

C=CCN1C(=O)NC(=O)/C(=C\NNC(=O)c2ccncc2)C1=O
pKd [11]: 7.60
pKd [12]: 8.60
pIC50 [1]: 4.26

C=CCN1C(=O)NC(=O)/C(=C\NNC(=O)c2ccccc2)C1=O
pIC50 [1]: 4.81

O=C(CO)NN/C=C1\C(=O)NC(=O)N(Cc2ccccc2)C1=O
pIC50 [1]: < 4.00

C=CCN1C(=O)NC(=O)/C(=C\NNC(=O)c2ccnc3ccccc23)C1=O
pIC50 [1]: 4.89

O=C1NC(=O)N(c2ccccc2)C(=O)/C1=C/NNC(=O)c1cccnc1
pIC50 [1]: 4.49

COc1cccc(C(=O)NN/C=C2\C(=O)NC(=O)N(Cc3ccccc3)C2=O)c1
pIC50 [1]: 5.19

O=C1NC(=O)N(Cc2ccccc2)C(=O)/C1=C/NNC(=O)c1cccc([N+](=O)[O-])c1
pIC50 [1]: 4.37

O=C1NC(=O)N(C2CCC2)C(=O)/C1=C/NNC(=O)c1ccncc1
MIC50 [2]: 2.37 µM (≈ 0.782 µg/mL)
selectivity ratio [3]: > 84.2
CC50 at 24 h [4]: > 200 µM
viability at 24 h, 200 µM [5]: 100%
inhibition at 50 µM [6]: 100%
pIC50 [1]: 4.74
inhibition at 10 µM [7]: 100%
inhibition at 10 µM [8]: 100%

Cc1ccc(S(=O)(=O)C(=O)NN/C=C2\C(=O)NC(=O)N(Cc3ccccc3)C2=O)cc1
pIC50 [1]: 4.21

CC[C@@H](C)N1C(=O)NC(=O)/C(=C\NNC(=O)c2ccncc2)C1=O
MIC50 [2]: 2.5 µM (≈ 0.83 µg/mL)
selectivity ratio [3]: > 68.1
CC50 at 24 h [4]: > 200 µM
viability at 24 h, 200 µM [5]: 100%
inhibition at 50 µM [6]: 100%
pIC50 [1]: 4.30
inhibition at 10 µM [7]: 100%
inhibition at 10 µM [8]: 100%

O=C1NC(=O)N(C2CCCCC2)C(=O)/C1=C/NNC(=O)c1cccnc1
pIC50 [1]: 4.52

COc1ccc(C(=O)NN/C=C2\C(=O)NC(=O)N(Cc3ccccc3)C2=O)cc1
pIC50 [1]: 5.52

CC(=O)NN/C=C1\C(=O)NC(=O)N(Cc2ccccc2)C1=O
pIC50 [1]: < 4.00

C=CCN1C(=O)NC(=O)/C(=C\NNC(=O)c2cccc3ncccc23)C1=O
pIC50 [1]: 4.96

O=C1NC(=O)N(Cc2ccccc2)C(=O)/C1=C/NNC(=O)c1ccc(O)cc1
pIC50 [1]: 5.07

O=C1NC(=O)N(Cc2ccccc2)C(=O)/C1=C/NNC(=O)c1cccc(O)c1
pIC50 [1]: 5.19

O=C(Cc1ccccc1)NN/C=C1\C(=O)NC(=O)N(Cc2ccccc2)C1=O
pIC50 [1]: 4.91

CCOCC(=O)NN/C=C1\C(=O)NC(=O)N(Cc2ccccc2)C1=O
pIC50 [1]: < 4.00

O=C1NC(=O)N(Cc2ccccc2)C(=O)/C1=C/NNC(=O)c1ccc(Cl)cc1
pIC50 [1]: 4.62

O=C1NC(=O)N(Cc2ccccc2)C(=O)/C1=C/NNC(=O)c1cccc(Cl)c1
pIC50 [1]: 4.61

CN1C(=O)NC(=O)/C(=C\NNC(=O)c2ccncc2)C1=O
MIC50 [2]: 1.4 µM (≈ 0.405 µg/mL)
selectivity ratio [3]: > 143
CC50 at 24 h [4]: > 200 µM
viability at 24 h, 200 µM [5]: 100%
inhibition at 50 µM [6]: 100%
pIC50 [1]: 4.30
inhibition at 10 µM [7]: 100%
inhibition at 10 µM [8]: 100%

O=C1NC(=O)N(Cc2ccccc2)C(=O)/C1=C/NNC(=O)c1ccccc1
pIC50 [1]: 5.14

Nc1cccc(C(=O)NN/C=C2\C(=O)NC(=O)N(Cc3ccccc3)C2=O)c1
pIC50 [1]: 5.36
